Test results from paper PMC4205912, “Sea foam as a source of fungal inoculum for the isolation of biologically active natural products” (Mycology, 2014).
Converted amounts (≈) assume the structure as drawn. Read-outs that look alike come from different tables or passages of the source.

How the values were obtained:
[1] = system: Candida albicans ATCC 14035; assay: microbroth susceptibility testing, C. albicans; format: cell-based; conditions: for IC50 / MIC: Candida albicans, ATCC14035
Description: (§1) All microbroth antibiotic susceptibility testing was carried out in triplicate in 96-well plates in accordance with Clinical Laboratory Standards Institute testing standards (NCCLS, [2003]) using the following pathogens: MRSA ATCC 33591 (MRSA), S. warneri ATCC 17917, VRE EF379 (VRE), Pseudomonas aeruginosa ATCC 14210, Proteus vulgaris ATCC 12454, and Candida albicans ATCC 14035. Extract fractions were assayed at 250 µg/mL while pure compounds were serially diluted to generate a range of 12 concentrations (128–0.0625 µg/mL) in a final well volume concentration of 2% DMSO(aq). […] The optical density of the plate was recorded using a Thermo Scientific Varioskan Flash plate reader at 600 nm at time zero and then again after incubation of the plates for 22 h at 37°C. After subtracting the time zero OD600 from the final reading, the percentages of microorganism survival relative to vehicle control wells were calculated.

[2] = system: human breast adenocarcinoma cells (ATCC HTB-26); assay: cytotoxicity assay (Alamar blue), HTB-26; format: cell-based; conditions: for IC50: Homo sapiens, HTB26, 72 h, read-out: HTB-26 IC50
Description: (§2) Human foreskin BJ fibroblast cells (ATCC CRL-2522), adult human epidermal keratinocytes (HEKa), and human breast adenocarcinoma cells (ATCC HTB-26) were grown to 80% confluency (growth conditions are provided in Supplementary Materials and Methods), the cells were counted, diluted, and plated into treated 96-well cell culture plates. The BJ fibroblast and HEKa cells were plated at a cell density of 10,000 cells per well and the HTB-26 cells were plated at cell density of 5000 cells per well in 90 µL of respective growth medium (without the addition of antibiotics) and incubated for 24 h to allow cells to adhere to the plates before treatment. Pure compounds were tested in triplicate in serial dilutions of eight concentrations ranging from 128 µg/mL to 1 µg/mL per well (final well volume of 100 µL, 1% DMSO per well). Each of the cell lines were incubated at 37°C in a humidified atmosphere of 5% CO2; the BJ fibroblast and HEKa cells for 24 h and the HTB-26 cells for 72 h. Each plate contained four uninoculated positive controls, four untreated negative controls, and one column containing a concentration range of zinc pyrithione or doxorubicin. Alamar blue was added, 24 h after the treatment, and fluorescence was monitored using a Thermo Scientific Varioskan Flash plate reader at 560/12 excitation, 590 nm emission both at time zero and 4 h after Alamar blue addition. The inferred percentage of cell viability relative to vehicle control wells were calculated after subtracting the time zero emission 590 nm measurement from the final reading and the IC50 was determined.

S. warneri ATCC 17917 = assay: microbroth antibiotic susceptibility testing, S. warneri; format: cell-based; conditions: Staphylococcus warneri; for IC50: read-out: S. warneri IC50; for MIC: read-out: S. warneri MIC
Description: as §1

MRSA ATCC 33591 = assay: microbroth antibiotic susceptibility testing, MRSA; format: cell-based, methicillin-resistant Staphylococcus aureus; conditions: Staphylococcus aureus; for IC50: read-out: MRSA IC50; for MIC: read-out: MRSA MIC
Description: as §1

[3] = system: Proteus vulgaris ATCC 12454; assay: microbroth antibiotic susceptibility testing, P. vulgaris; format: cell-based; conditions: Proteus vulgaris, ATCC12454; triplicate, averaged; 22 h at 37°C
Description: as §1, with “14035.” for “14035. Extract fractions were assayed at 250 µg/mL while pure compounds were serially diluted to generate a range of 12 concentrations (128–0.0625 µg/mL) in a final well volume concentration of 2% DMSO(aq).”

[4] = system: Pseudomonas aeruginosa ATCC 14210; assay: microbroth antibiotic susceptibility testing, P. aeruginosa; format: cell-based; conditions: Pseudomonas aeruginosa, ATCC14210; triplicate, averaged; 22 h at 37°C
Description: as §1

[5] = system: Human foreskin BJ fibroblast cells (ATCC CRL-2522); assay: cytotoxicity assay (Alamar blue), fibroblasts; format: cell-based; conditions: for IC50: Homo sapiens, 24 h, read-out: Fibroblast IC50
Description: as §2

[6] = system: adult human epidermal keratinocytes (HEKa); assay: cytotoxicity assay (Alamar blue), keratinocytes; format: cell-based; conditions: Homo sapiens; HeKa cells, 24 h; read-out: Keratinocyte IC50
Description: as §2

VRE EF379 = assay: microbroth antibiotic susceptibility testing, VRE; format: cell-based, vancomycin-resistant Enterococcus faecium; conditions: Enterococcus, VRE; for IC50: read-out: VRE IC50; for MIC: read-out: VRE MIC
Description: as §1

[7] = triplicate, averaged, 22 h at 37°C
[8] = HTB-26 breast cancer cells, 72 h
[9] = ATCC17917, triplicate, averaged, 22 h at 37°C
[10] = at a concentration of 128 μg/mL

Row | Structure (SMILES) | IC50 [1, 7] | MIC [1, 7] | HTB-26 MIC [2, 8] | IC50 [2, 8] | IC50 (S. warneri ATCC 17917; [9]) | MIC (S. warneri ATCC 17917; [9]) | IC50 (MRSA ATCC 33591; [7]) | MIC (MRSA ATCC 33591; [7]) | IC50 [3] | MIC [3] | IC50 [4] | MIC [4] | IC50 ([5]; BJ cells) | IC50 [6] | IC50 (VRE EF379; [7]) | MIC (VRE EF379; [7]) | also measured
1 | Cc1cc(CO)c2c(=O)c3c(O)cccc3oc2c1 [1-hydroxy-6-methyl-8-hydroxymethylxanthone] | > 128 µg/mL | > 128 µg/mL | 32 µg/mL | 24 µg/mL (≈ 93.7 µM) | > 128 µg/mL | > 128 µg/mL | > 128 µg/mL | > 128 µg/mL | > 128 µg/mL | > 128 µg/mL | > 128 µg/mL | > 128 µg/mL | 29 µg/mL (≈ 113 µM) | 12 µg/mL (≈ 46.8 µM) | > 128 µg/mL | > 128 µg/mL | 
2 | C[C@H]1CCC/C=C/[C@@H]2C[C@H](O)C[C@H]2[C@H](O)/C=C/C(=O)O1 [Brefeldin A, brefeldin A] | 20 µg/mL (≈ 71.3 µM) | 128 µg/mL (≈ 457 µM) |  | > 0.5 µg/mL | > 128 µg/mL | > 128 µg/mL | > 128 µg/mL | > 128 µg/mL | > 128 µg/mL | > 128 µg/mL | > 128 µg/mL | > 128 µg/mL | > 64 µg/mL | 0.5 µg/mL (≈ 1.78 µM) | > 128 µg/mL | > 128 µg/mL | effect against C. albicans [1]: antifungal effect
3 | Cc1cc(O)c2c(c1)C(C1c3cccc(O)c3C(=O)c3c(O)cc(C)cc31)c1cccc(O)c1C2=O (stereo not drawn) [Chrysophanol bianthrone, chrysophanol bianthrone] | > 128 µg/mL | > 128 µg/mL | 64 µg/mL | 5 µg/mL (≈ 10.4 µM) | > 128 µg/mL | > 128 µg/mL | > 128 µg/mL | > 128 µg/mL | > 128 µg/mL | > 128 µg/mL | > 128 µg/mL | > 128 µg/mL | > 64 µg/mL | > 64 µg/mL | 128 µg/mL (≈ 268 µM) | > 128 µg/mL | 
4 | Cc1cc(O)c2c(c1)C(=O)c1cccc(O)c1C2=O [Chrysophanol, chrysophanol] | > 128 µg/mL | > 128 µg/mL | >64 µg/mL | > 64 µg/mL | > 128 µg/mL | > 128 µg/mL | > 128 µg/mL | > 128 µg/mL | > 128 µg/mL | > 128 µg/mL | > 128 µg/mL | > 128 µg/mL | > 64 µg/mL | > 64 µg/mL | > 128 µg/mL | > 128 µg/mL | activity against HTB-26 cell line [2, 10]: inactive; activity against fibroblast cell line [5, 10]: inactive
5 | COc1cccc2c1C(=O)c1c(O)c3c(c(O)c1C2=O)C[C@@](O)(C(=O)CO)C[C@@H]3O[C@H]1C[C@H](N)[C@H](O)[C@H](C)O1 [Doxorubromycin, doxorubicin, reference compound] |  |  | >16 µg/mL | 2.5 µg/mL (≈ 4.6 µM) |  |  |  |  |  |  |  |  |  |  |  |  | 
6 | CC(C)C12SSSSC3(C(=O)N1C)C1OC45C(=O)N(C)C(CO)C(=O)N4C4Nc6ccccc6C4(C5O)C14c1ccccc1NC4N3C2=O (stereo not drawn) [Leptosin J, leptosin J] | > 128 µg/mL | > 128 µg/mL | 0.5 µg/mL |  | 9 µg/mL (≈ 12.1 µM) | 64 µg/mL (≈ 86.4 µM) |  |  | > 128 µg/mL | > 128 µg/mL | > 128 µg/mL | > 128 µg/mL |  | > 0.5 µg/mL |  |  | IC50 [2]: > 0.5 µg/mL; IC50 (MRSA ATCC 33591; 22 h): 0.7 µg/mL (≈ 0.945 µM); MIC (MRSA ATCC 33591; 22 h): 2 µg/mL (≈ 2.7 µM); IC50 ([5]; BJ): 0.5 µg/mL (≈ 0.675 µM); IC50 (VRE EF379; 22 h): 128 µg/mL (≈ 173 µM); MIC (VRE EF379; 22 h): > 128 µg/mL
7 | C[C@@H]1[C@H](O)[C@@H](C)/C=C/C=C/CC/C=C/C=C/C=C/C=C/C(O[C@H]2O[C@H](C)[C@@H](O)[C@H](N)[C@@H]2O)CC2O[C@](O)(CC(O)C(O)CCC(O)CC(O)CC(O)CC(=O)O[C@H]1C)CC(O)C2C(=O)O (stereo partly drawn) [Nystatin, nystatin, reference compound] |  |  |  |  |  |  |  |  |  |  |  |  |  |  |  |  | C. albicans IC50 [1, 7]: 0.92 µg/mL; C. albicans MIC [1, 7]: 1.6 µg/mL
8 | CO[C@H]1/C=C/O[C@@]2(C)Oc3c(C)c(O)c4c(O)c(c(/C=N/N5CCN(C)CC5)c(O)c4c3C2=O)NC(=O)/C(C)=C\C=C\[C@H](C)[C@H](O)[C@@H](C)[C@@H](O)[C@@H](C)[C@H](OC(C)=O)[C@@H]1C [Rifampicin, rifampicin, reference compound] |  |  |  |  |  |  |  |  |  |  |  |  |  |  | 0.5 µg/mL (≈ 0.608 µM) | 2 µg/mL (≈ 2.43 µM) | 
9 | COC1=C(Cl)C(C)(O)c2c(oc(=O)c3c(O)cc(OC)cc23)C1=O (stereo not drawn) [TMC-264] | > 128 µg/mL | > 128 µg/mL | 8 µg/mL | 2.8 µg/mL (≈ 7.94 µM) | 23 µg/mL (≈ 65.2 µM) | 64 µg/mL (≈ 181 µM) | 14 µg/mL (≈ 39.7 µM) | 64 µg/mL (≈ 181 µM) | > 128 µg/mL | > 128 µg/mL | > 128 µg/mL | > 128 µg/mL | 13 µg/mL (≈ 36.9 µM) | 1 µg/mL (≈ 2.84 µM) | 100 µg/mL (≈ 284 µM) | > 128 µg/mL | 
10 | CN[C@H](CC(C)C)C(=O)N[C@H]1C(=O)N[C@@H](CC(N)=O)C(=O)N[C@H]2C(=O)N[C@H]3C(=O)N[C@H](C(=O)N[C@H](C(=O)O)c4cc(O)cc(O)c4-c4cc3ccc4O)[C@H](O)c3ccc(c(Cl)c3)Oc3cc2cc(c3O[C@@H]2O[C@H](CO)[C@@H](O)[C@H](O)[C@H]2O[C@H]2C[C@](C)(N)[C@H](O)[C@H](C)O2)Oc2ccc(cc2Cl)[C@H]1O [Vancomycin, vancomycin, reference compound] |  |  |  |  |  |  |  |  |  |  |  |  |  |  |  |  | IC50 (S. warneri ATCC 17917; ATCC17917, 22 h): 0.75 µg/mL (≈ 0.518 µM); MIC (S. warneri ATCC 17917; ATCC17917, 22 h): 1 µg/mL (≈ 0.69 µM); IC50 (MRSA ATCC 33591; 22 h): 0.88 µg/mL (≈ 0.607 µM); MIC (MRSA ATCC 33591; 22 h): 1.6 µg/mL (≈ 1.1 µM)
